Assay results published in ChEMBL document CHEMBL6109086, “Discovery and biological evaluation of hederagenin derivatives as non-substrate inhibitors of P-glycoprotein-mediated multidrug resistance” (Eur J Med Chem, 2025).

Legend:
[1] = Cytotoxicity against human KBV cells assessed as paclitaxel induced cytotoxicity by measuring cell survival at 10 uM measured after 72 hrs by MTT assay relative to control; type: functional
[2] = Reversal of multi-drug resistance in human KBV cells assessed as paclitaxel induced cytotoxicity by measuring cell survival at 10 uM measured after 72 hrs by MTT assay relative to control; type: functional

| Structure (SMILES) | Activity [1] [%] | Activity [2] [%] |
| --- | --- | --- |
| CC1(C)CC[C@]2(C(=O)NCC(=O)OCCOCCOCCO)CC[C@]3(C)C(=CC[C@@H]4[C@@]5(C)Cc6nccnc6[C@@](C)(CO)[C@@H]5CC[C@]43C)[C@@H]2C1 | 86.82 | 67.88 |
| CC1(C)CC[C@]2(C(=O)NCCCC(=O)OCCOCCOCCOCCOCCO)CC[C@]3(C)C(=CC[C@@H]4[C@@]5(C)Cc6nccnc6[C@@](C)(CO)[C@@H]5CC[C@]43C)[C@@H]2C1 | 94.86 | 27.02 |
| COC(=O)[C@H](Cc1ccccc1)NC(=O)COC(=O)[C@]12CCC(C)(C)C[C@H]1C1=CC[C@@H]3[C@@]4(C)Cc5nccnc5[C@@](C)(CO)[C@@H]4CC[C@@]3(C)[C@]1(C)CC2 | 90.77 | 38.69 |
| CC1(C)CC[C@]2(C(=O)OCC(=O)OCc3ncco3)CC[C@]3(C)C(=CC[C@@H]4[C@@]5(C)Cc6nccnc6[C@@](C)(CO)[C@@H]5CC[C@]43C)[C@@H]2C1 | 62.38 | 26.03 |
| CC1(C)CC[C@]2(C(=O)OCC(=O)NCc3cnccn3)CC[C@]3(C)C(=CC[C@@H]4[C@@]5(C)Cc6nccnc6[C@@](C)(CO)[C@@H]5CC[C@]43C)[C@@H]2C1 | 97.94 | 40.44 |
| CC1(C)CC[C@]2(C(=O)OCC(=O)NCc3ccccn3)CC[C@]3(C)C(=CC[C@@H]4[C@@]5(C)Cc6nccnc6[C@@](C)(CO)[C@@H]5CC[C@]43C)[C@@H]2C1 | 82.98 | 33.22 |
| CC1(C)CC[C@]2(C(=O)OCC(=O)OCc3nccs3)CC[C@]3(C)C(=CC[C@@H]4[C@@]5(C)Cc6nccnc6[C@@](C)(CO)[C@@H]5CC[C@]43C)[C@@H]2C1 | 105.92 | 43.84 |
| COC(=O)[C@H](CC(C)C)NC(=O)COC(=O)[C@]12CCC(C)(C)C[C@H]1C1=CC[C@@H]3[C@@]4(C)Cc5nccnc5[C@@](C)(CO)[C@@H]4CC[C@@]3(C)[C@]1(C)CC2 | 85.1 | 38.41 |
| COC(=O)CC[C@H](NC(=O)COC(=O)[C@]12CCC(C)(C)C[C@H]1C1=CC[C@@H]3[C@@]4(C)Cc5nccnc5[C@@](C)(CO)[C@@H]4CC[C@@]3(C)[C@]1(C)CC2)C(=O)OC | 92.53 | 40.07 |
| CC1(C)CC[C@]2(C(=O)OCC(=O)NCC3CCOCC3)CC[C@]3(C)C(=CC[C@@H]4[C@@]5(C)Cc6nccnc6[C@@](C)(CO)[C@@H]5CC[C@]43C)[C@@H]2C1 | 78.91 | 30.34 |
| CC1(C)CC[C@]2(C(=O)OCC(=O)OCc3ccncc3)CC[C@]3(C)C(=CC[C@@H]4[C@@]5(C)Cc6nccnc6[C@@](C)(CO)[C@@H]5CC[C@]43C)[C@@H]2C1 | 109.15 | 46.31 |
| CC1(C)CC[C@]2(C(=O)OCC(=O)NCc3ncccn3)CC[C@]3(C)C(=CC[C@@H]4[C@@]5(C)Cc6nccnc6[C@@](C)(CO)[C@@H]5CC[C@]43C)[C@@H]2C1 | 90.35 | 39.38 |
| CC1(C)CC[C@]2(C(=O)OCC(=O)OCc3cnccn3)CC[C@]3(C)C(=CC[C@@H]4[C@@]5(C)Cc6nccnc6[C@@](C)(CO)[C@@H]5CC[C@]43C)[C@@H]2C1 | 121.45 | 53.78 |
| C[C@H](N)C(=O)N[C@@H](C)C(=O)NCCNC(=O)[C@]12CCC(C)(C)C[C@H]1C1=CC[C@@H]3[C@@]4(C)Cc5nccnc5[C@@](C)(CO)[C@@H]4CC[C@@]3(C)[C@]1(C)CC2 | 92.74 | 28.53 |
| CC1(C)CC[C@]2(C(=O)NCC(=O)OCCOCCOCCOCCOCCO)CC[C@]3(C)C(=CC[C@@H]4[C@@]5(C)Cc6nccnc6[C@@](C)(CO)[C@@H]5CC[C@]43C)[C@@H]2C1 | 77.18 | 78.98 |
| CC1(C)CC[C@]2(C(=O)OCC(=O)NCc3cccs3)CC[C@]3(C)C(=CC[C@@H]4[C@@]5(C)Cc6nccnc6[C@@](C)(CO)[C@@H]5CC[C@]43C)[C@@H]2C1 | 54.97 | 25.86 |
